`O=C(C#Cc1ccc(-c2ccc(Cl)cc2)cn1)Nc1ccc(CN2CCC(O)CC2)cc1` displayed a melting point of 186 to 190 °C. Turning to `CCn1c(=O)c2[nH]c(/C=C/c3ccc(OC)c(C)c3OC)nc2n(CC)c1=O`, the melting point is more than 275 °C.

For the compound `N#Cc1cccnc1N1CCN(CCCCc2ccc(-c3csc(N)n3)cc2)CC1`, the melting point is 155 to 162 °C. The compound `CCOc1cc(CCCC2OC(=O)NC2=O)ccc1OCc1nc(-c2ccccc2)oc1C` (centres undefined) registered a melting point of 129 to 130 °C. The compound `CCCc1nc2cncc(C)c2[nH]1` came in with a melting point of 173 to 175 °C. `CCOC(=O)Cc1c(C(=O)O)c(C)c(C(=O)c2ccc(C)cc2)n1C`: the melting point was in the range of 200 to 202 °C. As for `COc1c(C)c2c(c(C(=O)O)c1C/C=C(\C)CCC(=O)O)C(=O)OC2`, the figure is 172 to 174 °C; as for `CCC(Oc1ccccc1C(C)=O)C(=O)OC1CC(O)C=C2C=CC(C)C(CCC3CC(O)CC(=O)O3)C21` (mixture of isomers), 148 to 150 °C. The compound `CC1(C)Sc2nccn2C1=NOC(=O)CNSCNC(=O)ON=C1n2ccnc2SC1(C)C` had a melting point of 177 to 180 °C. `NS(=O)(=O)c1ccco1` gave a melting point of 120 to 122 °C. As for `O=C(/C=C/c1ccn(S(=O)(=O)c2ccc(CN3CCOCC3)cc2)c1)NO`, the figure is 168 to 170 °C; as for `Cc1nc2cnccc2n1-c1ccc(O)cc1`, 265 to 267 °C; as for `CCN1CCCC1CNC(=O)c1cc(NS(=O)(=O)NC(C)(C)C)c(C)cc1OC` (centres undefined), 167 to 168 °C. As for `COc1ccc(CN(CC(=O)NO)S(=O)(=O)c2ccc(OC)cc2)cc1`, the figure is 134 to 136 °C; as for `COc1nc(C(F)(F)C(F)(F)F)cc(=O)n1-c1cc(C(=O)O)c(Cl)cc1F`, 197 to 199 °C; as for `COC1=C(OC)C(=O)C2=C(CC(CCCCOc3ccc(C(=O)O)cc3)C2)C1=O`, 149 to 153 °C. As for `Cn1ccnc1Sc1ccc([N+](=O)[O-])cc1F`, the figure is 97 to 99 °C; as for `COC(=O)c1ccc(S(C)(=O)=O)c(C)c1Cl`, 107 to 108 °C; as for `COc1ccc(C(=O)Oc2ccc(COc3ccc4c(c3)CCC(CN(C)C)C4)cc2)cc1` (centres undefined), 119 to 121 °C. For `CNC(=O)C1Cc2c(n(C)c3ccc(OCc4ccccc4)cc23)C1` (centres undefined), the melting point lay in the range of 176 to 177 °C. Compound `CCOC(=O)NC1=NCC(c2ccc(F)cc2)N1C` (centres undefined) had a melting point of 117 to 118 °C. In turn, `CCOc1nc(NCc2ccco2)nc(Nc2ccc(OC)c(OC)c2)n1` registered a melting point of 100 to 102 °C. `O=[N+]([O-])c1cc2ccccc2nc1Nc1ccc(O)cc1` displayed a melting point of 190 °C. As for `CCOC(=O)c1c(Cn2cncn2)nc2sc(C)c(C)c2c1-c1ccc(Cl)cc1`, the figure is 144 to 145 °C; as for `CC(=O)Nc1ccc(C(=O)c2cc(-c3ccc(Cl)cc3)c(N3CCOCC3)s2)cc1`, 125 to 127 °C; as for `COC(=O)c1ccc(C=O)c2ncccc12`, 128 °C.

On to `CC1(C)COC(c2ccc(Br)cc2)OC1`, for which the melting point is 62 to 64 °C. As for `Nc1c(C(=O)O)cnn1-c1ccc(C(F)(F)F)cc1`, the figure is 169 to 171 °C; as for `CCOC(=O)c1cnc(N2CCn3ccnc3C2)nc1NCc1ccc(OC)c(Cl)c1`, 179 to 182 °C; as for `CSc1noc(-c2ccc(OCCCCOc3ccccc3)cc2)c1C#N`, 113 to 114 °C.

`OC(c1ccccc1)(c1ccccc1Cl)c1nccn1Cc1ccccc1` (centres undefined) yielded a melting point of 168 °C. As for `Brc1ncccc1-c1cccnc1`, the figure is 97 to 98 °C.

Compound `COc1ccc(C2CCCCC2)cc1-c1csc(NC(=O)N2CCN(C[C@@H]3CCCN(C4CC4)C3)CC2)n1` had a melting point of 88 °C. As for `CCCCCCCCCCCCNC(N)=O`, the figure is 105 to 107 °C; as for `O=C(O)C(F)(F)C(F)(F)C(F)(F)C(F)(F)C(F)(F)C(F)(F)C(=O)O`, 142 to 144 °C; as for `CS(=O)(=O)N(Cc1cccnc1)c1ccc(Oc2ccccc2)cc1`, 139 to 140 °C. As for `CC(C)(C)C(NC(=O)c1ccc(Cl)cc1)NC(=NC#N)NCc1ccccc1Cl` (centres undefined), the figure is 180 to 182 °C; as for `COc1ccc(N=C2SC(=CC(=O)O)C(=O)N2c2ccc(OC)cc2)cc1`, 184 to 187 °C; as for `ClCc1csc(-c2ccc(Cl)c(Cl)c2)n1`, 93 to 96 °C. As for `CC(C)(C)OC(=O)CNS(=O)(=O)c1ccc(N2CCC(NC[C@H](O)c3ccc(O)c(NS(C)(=O)=O)c3)CC2)cc1`, the figure is 113 to 115 °C; as for `C=C(C)COC1CC2C3CCC4=CC(=O)C=CC4(C)C3(F)C(O)CC2(C)C1(O)C(=O)CCl` (centres undefined), 238 to 240 °C. On to `CCc1ccccc1C=C1CCN2Cc3ccccc3N=C12`, for which the melting point fell in the range of 224 to 225 °C. As for `Cn1cc(-c2cc3cccnc3[nH]2)c2cc(C(=O)NCCO)ccc21`, the figure is 256 to 257 °C; as for `ClC(=NNc1ccccc1)c1c(Cl)cccc1Cl`, 95.5 to 96.5 °C.

`CSc1ccc(C(=O)Nc2ccccc2)cc1Nc1cccc(C(F)(F)F)c1` displayed a melting point of 169 to 170 °C. As for `COc1cc2c(c(OC)c1OC)COc1c(C(F)(F)F)nn(-c3ccc(S(N)(=O)=O)cc3)c1-2`, the figure is 130 °C; as for `CC(C)(C)COc1c(-c2ccc(S(C)(=O)=O)cc2)cnn(CC(F)(F)F)c1=O`, 145 to 146 °C; as for `CCC(=O)N[C@@H](C)C(=O)N1CCC[C@H]1C(=O)NC1CCCCCCC1`, 142 to 143 °C. On to `N#CCC(=O)Nc1ccc(-c2nncn2-c2ccc(F)cc2)cc1`, for which the melting point was 223 to 225 °C.

Regarding `Oc1ccc(-c2cc3cc(O)cc(-c4nnco4)c3o2)cc1`, the melting point was 260 to 266 °C.

The compound `CCCCCCC(=O)NCC(=O)O` yielded a melting point of 98 to 100 °C. As for `Oc1cccc(CCc2nc3ccccc3s2)c1`, the figure is 129 to 130 °C; as for `Cc1nn(-c2cc(Sc3ccc(O)cc3)c(Cl)cc2Cl)c(=O)n1C(F)F`, 228 to 229 °C. As for `O=C(O)Cn1c(-c2ccccc2Cl)nc2cccnc21`, the melting point fell in the range of 227 to 228 °C. As for `CN(c1cccc2cc(C3=NCC4(CCOCC4)S3)[nH]c12)S(=O)(=O)c1cccs1`, the figure is 189 to 191 °C; as for `CC(C)(C)c1ccc(S(=O)(=O)Nc2cc(Cl)ncn2)cc1`, 225 to 226 °C. Take `O=C(N[C@@H](CS)C(=O)O)C(Sc1nc2cc(Cl)ccc2s1)c1ccccc1` (some centres undefined): the melting point was 155 to 158 °C. As for `CCNC(=O)c1c(C2CC2)nc(CC)n1Cc1ccc2oc(-c3ccccc3NS(=O)(=O)C(F)(F)F)c(Br)c2c1`, the figure is 124 to 130 °C; as for `Cc1ccccc1Nc1c(C(=O)C(C)C)cnc2c(OCCO)cccc12`, 138 to 140 °C. As for `CC1(C)OC(=C(C#N)C#N)C(C#N)=C1c1ccc(N=[N+]=[N-])cc1`, the melting point is 184 °C. As for `Cc1ccc2c(O)ccnc2c1`, the figure is 233 to 235 °C. As for `Fc1ccc2c(c1)nc(C(F)(F)C(F)(F)F)n2C1CCNCC1`, the figure is 177 to 178 °C; as for `CC(=O)Nc1c(C)cccc1CCC(=O)O`, 110 °C. In turn, `CN(C)CCCCCCCCCCC(=N)NC(=S)Nc1ccc(Cl)cc1` yielded a melting point of 130 to 132 °C.

A word on the melting point: it is the temperature of the solid-liquid transition.

These data come from a melting point compilation (Tetko et al.; mined from patent text by program, amines drawn as free bases though some values may be those of a salt).
